Reference: article PMC4409382, “Structural Analysis of the 14-3-3ζ/Chibby Interaction Involved in Wnt/β-Catenin Signaling” (PLoS ONE, 2015)
Square brackets hold non-standard residues; d marks the D form. Ends that are not written are not given here. Peptide text beside a SMILES is read from it. pS = N[C@@H](COP(=O)(O)O)C(=O)O

T1: 14-3-3ζ (Homo sapiens, UniProt P63104)
T1 construct: Both full-length 14-3-3ζ and 14-3-3ζΔC12 were expressed as N-terminally His-tagged protein; His tag (TEV-cleavable) (N, cleaved yes); made in house; host or cells: Escherichia coli BL21 (DE3) pLysS
T1 sequence (P63104 1-245): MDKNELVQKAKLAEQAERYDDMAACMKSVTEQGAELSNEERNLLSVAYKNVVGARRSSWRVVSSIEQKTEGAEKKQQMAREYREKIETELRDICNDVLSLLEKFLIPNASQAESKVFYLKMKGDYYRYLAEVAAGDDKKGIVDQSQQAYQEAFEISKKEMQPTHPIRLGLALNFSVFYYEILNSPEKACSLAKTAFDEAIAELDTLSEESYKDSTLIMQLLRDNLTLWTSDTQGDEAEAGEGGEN

T2: 14-3-3ζ (human, full-length) (human, UniProt P63104 1-245)
T2 construct: N-terminal glycine retained after TEV cleavage of the His tag; 14-3-3ζ, human, ORF bought from GeneCopoeia, in Gateway pDEST17; full-length; Dimer in the crystal; the ITC stoichiometry counts on the 14-3-3 monomer; also called WT 14-3-3ζ; source: E. coli BL21 (DE3) pLysS, purified (Ni Sepharose, TEV cleavage, second Ni Sepharose pass); not shown: His tag, N-terminal, cleaved
T2 sequence: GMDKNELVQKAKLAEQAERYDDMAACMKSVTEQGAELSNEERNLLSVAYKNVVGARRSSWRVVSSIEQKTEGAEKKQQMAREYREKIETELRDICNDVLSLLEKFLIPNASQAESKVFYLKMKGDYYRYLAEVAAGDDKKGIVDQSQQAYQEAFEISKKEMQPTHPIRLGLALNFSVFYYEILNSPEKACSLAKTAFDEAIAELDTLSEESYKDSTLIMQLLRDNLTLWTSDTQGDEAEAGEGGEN


Assays:
[1] = target: T1, 14-3-3ζ; experiment: ITC of Cby peptides titrated into 14-3-3ζ; type: binding; conditions: for n (binding stoichiometry of monomeric 14-3-3 and Cby peptide): 25°C; for T∆S / ∆G / ∆H / TΔS / ΔG / ΔH: 298.15 K; for T∆S / ∆G / ∆H: duplicate set (S1 Table); for TΔS / ΔG / ΔH: pH 6.8, Table 1 set of duplicate experiments
Source text: The human14-3-3ζ ORF purchased from GeneCopoeia was transferred into Gateway pDEST17 vector (Invitrogen). The 14-3-3ζΔC12, where the 12 C-terminal residues were deleted, was then generated from the full-length construct using QuikChange II Site-Directed Mutagenesis Kit (Strategene). Both full-length 14-3-3ζ and 14-3-3ζΔC12 were expressed as N-terminally His-tagged protein in Escherichia coli (E. coli) BL21 (DE3) pLysS in M9 medium. For unlabeled protein, protein expression was induced at an O.D.600 of 0.9 by adding 0.75 mM IPTG at 18°C for 24 h. The ^15N, ^13C, ^2H labeled 14-3-3ζΔC12 was produced by growing E. coli in deuterated M9 medium. Cells adapted to 70% D2O were used to inoculate a 1 L culture of M9 prepared in 100% D2O. Cells were grown at 37°C and overexpression was induced at an O.D.600 of 0.6 with 0.75 mM IPTG. After a 60-h induction at 18°C, the cells were harvested. All 14-3-3ζ constructs used in this study were purified from the crude lysate by affinity chromatography using Ni Sepharose Fast Flow beads (Amersham Biosciences). The tag was then cleaved by overnight incubation with His-tagged tobacco etch virus (TEV) protease at 25°C. The cleaved 14-3-3ζ, which retains an N-terminal glycine, was purified by passing the mixture through Ni Sepharose Fast Flow beads. The final yields for the 14-3-3ζ proteins were ~50 mg per L of M9 media (including deuterated media).
The Cby peptides used in this study were purchased from GenScript USA Inc. and the TUFTS University Core Facility. From GenScript USA Inc.: Cby 13-mer (NH2-^12KTPPRKSASLSNL^24-COOH), Cby S20D 13-mer (NH2-^12KTPPRKSADLSNL^24-COOH), Cby S20E 13-mer (NH2-^12KTPPRKSAELSNL^24-COOH), pCby 13-mer (NH2-^12KTPPRKSApSLSNL^24-COOH) and pCby 18-mer ((NH2-^12KTPPRKSApSLSNLHSLDR^29-COOH). From TUFTS: pCby 7-mer (Ac-^16RKSApSLS^22-NH2), pCby 11-mer (NH2-^12KTPPRKSApSLS^22-NH2), pCby S22P 7-mer (Ac-^16RKSApSLP^22-NH2), pCby S22P 13-mer (NH2-^12KTPPRKSApSLPNL^24-COOH) and pCby S22P 18-mer ([…]). Peptides were dissolved and dialyzed in 50 mM sodium phosphate, 100 mM NaCl at pH 6.8 for ITC and NMR experiments.
ITC experiments were performed on a VP-ITC instrument (MicroCal) at 25°C. The protein and peptide samples were dialyzed into a buffer containing 50 mM sodium phosphate, 100 mM NaCl, 1 mM DTT at pH 6.8 and degassed before the experiments. In a typical experiment, 5 μL aliquots of ~1–2 mM peptide were titrated stepwise into the 1.4 mL sample cell containing ~100–200 μM 14-3-3ζ. The association constant (Ka), molar binding stoichiometry (n) and the binding enthalpy (ΔH), entropy (ΔS) and Gibbs free energy (ΔG) were determined by fitting the binding isotherm to a one-site model with MicroCal Origin7 software. All ITC experiments were performed in duplicate. A duplicate set of thermodynamic derived binding parameters are found in S1 Table. Peptide and protein concentrations were determined from amino acid analysis (Amino Acid Analysis Facility, SickKids, Toronto, ON).

[2] = target: T2, 14-3-3ζ (human, full-length); experiment: ITC; VP-ITC, 25°C; ~1-2 mM peptide titrated in 5 uL aliquots into ~100-200 uM 14-3-3ζ in the cell; 50 mM sodium phosphate, 100 mM NaCl, 1 mM DTT, pH 6.8; one-site model; in duplicate; conditions: both partners purified
[3] = 50 mM sodium phosphate, 100 mM NaCl, 1 mM DTT, pH 6.8, one-site model, Table 1 set of duplicate experiments
[4] = pH 6.8, duplicate set (S1 Table)

Row | n (binding stoichiometry of monomeric 14-3-3 and Cby peptide) [1, 3] | n (binding stoichiometry of monomeric 14-3-3 and Cby peptide) [1, 4] | T∆S [1] | ∆G [1] | ∆H [1] | TΔS [1] | ΔG [1] | ΔH [1] | greater affinity compared to the Cby 7-mer (fold, in words) [1] | Kd ([1]; 25°C (298.15 K), 50 mM sodium phosphate, 100 mM NaCl, 1 mM DTT, pH 6.8, one-site model, Table 1 set of duplicate experiments) | Kd [2] | dH [2] | stoichiometry N [2] | Molecule
1 | 1.03 | 1.02 | 1.29 kcal/mol | -7.50 ± 0.02 kcal/mol | -6.21 ± 0.02 kcal/mol | 1.39 kcal/mol | -7.55 ± 0.01 kcal/mol | -6.16 ± 0.01 kcal/mol |  |  |  |  |  | CC(=O)N[C@@H](CCCNC(=N)N)C(=O)N[C@@H](CCCCN)C(=O)N[C@@H](CO)C(=O)N[C@@H](C)C(=O)N[C@@H](COP(=O)(O)O)C(=O)N[C@@H](CC(C)C)C(=O)N1CCC[C@H]1C(N)=O [Cby 7-mer S22P] (Ac-RKSA[pS]LP-NH2)
2 | 1.01 | 0.94 | 2.20 kcal/mol | -5.90 ± 0.02 kcal/mol | -3.70 ± 0.04 kcal/mol | 2.60 kcal/mol | -5.95 ± 0.03 kcal/mol | -3.35 ± 0.06 kcal/mol |  |  |  |  |  | CC(=O)N[C@@H](CCCNC(=N)N)C(=O)N[C@@H](CCCCN)C(=O)N[C@@H](CO)C(=O)N[C@@H](C)C(=O)N[C@@H](COP(=O)(O)O)C(=O)N[C@@H](CC(C)C)C(=O)N[C@@H](CO)C(N)=O [Cby 7-mer] (Ac-RKSA[pS]LS-NH2)
3 | 0.95 | 0.96 | 3.22 kcal/mol | -6.49 ± 0.02 kcal/mol | -3.27 ± 0.02 kcal/mol | 3.23 kcal/mol | -6.49 ± 0.02 kcal/mol | -3.26 ± 0.02 kcal/mol | more than two-fold | 17.5 ± 0.6 µM |  |  |  | CC(C)C[C@H](NC(=O)[C@H](COP(=O)(O)O)NC(=O)[C@H](C)NC(=O)[C@H](CO)NC(=O)[C@H](CCCCN)NC(=O)[C@H](CCCNC(=N)N)NC(=O)[C@@H]1CCCN1C(=O)[C@@H]1CCCN1C(=O)[C@@H](NC(=O)[C@@H](N)CCCCN)[C@@H](C)O)C(=O)N[C@@H](CO)C(N)=O [Cby 11-mer] (H-KTPPRKSA[pS]LS-NH2)
4 | 1.06 | 1.02 | 3.33 kcal/mol | -8.03 ± 0.02 kcal/mol | -4.70 ± 0.01 kcal/mol | 3.49 kcal/mol | -8.13 ± 0.02 kcal/mol | -4.64 ± 0.01 kcal/mol |  |  |  |  |  | CC(C)C[C@H](NC(=O)[C@H](CC(N)=O)NC(=O)[C@@H]1CCCN1C(=O)[C@H](CC(C)C)NC(=O)[C@H](COP(=O)(O)O)NC(=O)[C@H](C)NC(=O)[C@H](CO)NC(=O)[C@H](CCCCN)NC(=O)[C@H](CCCNC(=N)N)NC(=O)[C@@H]1CCCN1C(=O)[C@@H]1CCCN1C(=O)[C@@H](NC(=O)[C@@H](N)CCCCN)[C@@H](C)O)C(=O)O [Cby 13-mer S22P] (H-KTPPRKSA[pS]LPNL-OH)
5 |  |  |  |  |  |  |  |  |  |  | 21.3 µM | -1.56 ± 0.05 kcal/mol | 0.99 | KTPPRKSA[pS]LSNAHSLDR (Chibby (Cby), human, residues 12-29 with L24A; Not in the methods' list of peptides; also called Cby L24A 18-mer; source: synthetic peptide) [Cby 18-mer L24A (phosphorylated)]
6 |  |  |  |  |  |  |  |  |  |  | 1.1 µM | -4.64 ± 0.01 kcal/mol | 1.06 | KTPPRKSA[pS]LPNL (Chibby (Cby), human, residues 12-24 with S22P; free NH2 and COOH ends; also called Cby 13-mer S22P; source: synthetic peptide, bought: TUFTS University Core Facility) [pCby S22P 13-mer]
7 |  |  |  |  |  |  |  |  |  |  | 17.5 µM | -3.26 ± 0.02 kcal/mol | 0.95 | KTPPRKSA[pS]LS-NH2 (N-terminus assumed; SMILES CC(C)C[C@H](NC(=O)[C@H](COP(=O)(O)O)NC(=O)[C@H](C)NC(=O)[C@H](CO)NC(=O)[C@H](CCCCN)NC(=O)[C@H](CCCNC(=N)N)NC(=O)[C@@H]1CCCN1C(=O)[C@@H]1CCCN1C(=O)[C@@H](NC(=O)[C@@H](N)CCCCN)[C@@H](C)O)C(=O)N[C@@H](CO)C(N)=O, Chibby (Cby), human, residues 12-22; free NH2 end; source: synthetic peptide, bought: TUFTS University Core Facility) [pCby 11-mer]
8 |  |  |  |  |  |  |  |  |  |  | 43.5 µM | -3.35 ± 0.06 kcal/mol | 1.01 | Ac-RKSA[pS]LS-NH2 (SMILES CC(=O)N[C@@H](CCCNC(=N)N)C(=O)N[C@@H](CCCCN)C(=O)N[C@@H](CO)C(=O)N[C@@H](C)C(=O)N[C@@H](COP(=O)(O)O)C(=O)N[C@@H](CC(C)C)C(=O)N[C@@H](CO)C(N)=O, also called 16RKSA(pS)LS22; pCby WT 7-mer; source: synthetic peptide, bought: TUFTS University Core Facility) [pCby 7-mer]
9 |  |  |  |  |  |  |  |  |  |  | 2.9 µM | -6.16 ± 0.01 kcal/mol | 1.03 | Ac-RKSA[pS]LP-NH2 (SMILES CC(=O)N[C@@H](CCCNC(=N)N)C(=O)N[C@@H](CCCCN)C(=O)N[C@@H](CO)C(=O)N[C@@H](C)C(=O)N[C@@H](COP(=O)(O)O)C(=O)N[C@@H](CC(C)C)C(=O)N1CCC[C@H]1C(N)=O, Chibby (Cby), human, residues 16-22 with S22P; also called Cby 7-mer S22P; 16RKSA(pS)LP22; source: synthetic peptide, bought: TUFTS University Core Facility) [pCby S22P 7-mer]
